A value given as a limit tells only on which side of the number the result lay.

The target in the first assay is T1, active p38 alpha enzyme (Upstate Biotechnology) (Homo sapiens, UniProt Q16539).
T1 construct: purchased Upstate Biotechnology
T1 sequence (Q16539 whole entry): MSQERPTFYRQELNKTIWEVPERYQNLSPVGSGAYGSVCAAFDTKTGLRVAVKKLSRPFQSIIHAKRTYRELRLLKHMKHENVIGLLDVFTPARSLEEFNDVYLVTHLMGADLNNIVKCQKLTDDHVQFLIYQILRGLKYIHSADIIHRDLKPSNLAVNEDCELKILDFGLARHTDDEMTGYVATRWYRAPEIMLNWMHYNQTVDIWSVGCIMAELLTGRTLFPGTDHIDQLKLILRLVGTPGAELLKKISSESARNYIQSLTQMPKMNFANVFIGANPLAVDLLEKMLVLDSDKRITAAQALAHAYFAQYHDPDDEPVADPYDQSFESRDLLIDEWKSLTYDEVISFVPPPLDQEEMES
In words: p38α biochemical assay (ATP turnover, luminescent detection, Cambrex PKlight). The following applies: p38α biochemical assay, Table 1 Biological Activity. The method, then:
The p38α biochemical assay employed is based on measurement of total ATP turnover following enzyme incubation with substrate in the presence of ATP with the use of a luminescent detection reagent (Cambrex PKlight). The assays were performed in 1536-well white opaque plates.
The final volume was 7.5005 μL as prepared prepared from the addition of 5 ul of kinase reaction (p38 alpah+MapkapK2+ATP) with 0.0005 μL compound dissolved in DMSO, and 2.5 ul of the detection reagent. Assay buffer contains the following reagents to give final concentration in the assay: 200 mM Tris, 100 mM MgCl2, 1.5 mM EGTA, 4 mM CaCl2, 20 mM MOPS, 1 mM EDTA, 1% glycerol, 0.1% B-Mecaptoethanol, and 1 mg/ml BSA. Test compounds are pinned using proprietary pintool technology (Kalypsys, Inc) and delivered as […] amounts into the 5 ul mixture of active p38 alpha enzyme (Upstate Biotechnology) and MapkapK2 (Upstate Biotechnology) whole protein as a substrate for phosphorylation in the presence of 1.4 uM final concentration ATP. Reactions are incubated at 30C for 2 hours and detection reagent is added in 2.5 ul/well amounts. Assay is read using a Perkin Elmer Viewlux.
As to `Cc1onc(-c2ccc(Cl)cc2)c1-c1ccn(C(=O)NC2Cc3ccccc3C2)n1` [Example 10, 3-|3-(4-Chloro-phenyl)-5-methyl-isoxazol-4-yl|-pyrazole-1-carboxylic acid indan-2-ylamide], the IC50 was > 1000 nM.

Consider `CC(=O)NCc1onc(-c2ccc(F)cc2)c1-c1nc(C(=O)NC(C)C)cs1` [Example 573], for which the IC50 was > 1000 nM.

As for `CC(C)NC(=O)c1csc(-c2oc(CN3CCN(C(=O)c4cc(F)c(F)cc4Cl)CC3)nc2-c2ccc(F)cc2)n1` [Example 495], the IC50 was > 1000 nM.

With `CC(C)NC(=O)c1csc(-c2oc(CN3CCN(C(=O)C=O)CC3)nc2-c2ccc(F)cc2)n1` [Example 336], the IC50 is ≤ 1000 nM.

Turning to `CC(C)NC(=O)c1csc(-c2c(-c3ccc(F)cc3)noc2CNC(=O)C(C)(C)C)n1` [Example 578], the IC50 was > 1000 nM.

Take `CC(C)NC(=O)c1csc(-c2oc(CN3CCN(C(=O)c4ccc(C(F)(F)F)cc4[N+](=O)[O-])CC3)nc2-c2ccc(F)cc2)n1` [Example 556]: the IC50 is > 1000 nM.

Regarding `CC(C)NC(=O)c1csc(-c2c(-c3ccc(F)cc3)noc2CNC(=O)c2ccc([N+](=O)[O-])cc2Cl)n1` [Example 747], the half-inhibitory concentration (IC50) was ≤ 1000 nM.

Consider `CC(C)NC(=O)c1csc(-c2oc(CN3CCN(C(=O)c4cc(F)c(F)c(O)c4F)CC3)nc2-c2ccc(F)cc2)n1` [Example 491], for which the IC50 is > 1000 nM.

On to `CC(C)NC(=O)c1csc(-c2c(-c3ccc(F)cc3)noc2CNC(=O)c2cc(Br)ccc2Cl)n1` [Example 795], for which the IC50 is > 1000 nM.

For `CC(C)NC(=O)c1csc(-c2c(-c3ccc(F)cc3)noc2CNC(=O)c2ccc(Cl)cc2Cl)n1` [Example 727], the IC50 was > 1000 nM.

With `CCCCc1ccc(C(=O)NCc2nc(-c3ccc(F)cc3)c(-c3nc(C(=O)NC(C)C)cs3)o2)cc1` [Example 208], the IC50 was > 1000 nM.

Regarding `CC(C)NC(=O)c1csc(-c2c(-c3ccc(F)cc3)ncn2C2CCN(C(=O)OC(C)(C)C)CC2)n1` [Example 90, 4-|4-(4-Fluoro-phenyl)-5-(4-isopropylcarbamoyl-thiazol-2-yl)-imidazol-1-yl|-piperidine-1-carboxylic acid tert-butyl ester], the IC50 is > 1000 nM.

With `Cc1ccc(C(=O)NCc2onc(-c3ccc(F)cc3)c2-c2nc(C(=O)NC(C)C)cs2)cc1Br` [Example 768], the IC50 was > 1000 nM.

As to `CC(C)NC(=O)c1csc(-c2c(-c3ccc(F)cc3)noc2CNC(=O)/C=C/c2ccccc2C(F)(F)F)n1` [Example 771], the IC50 was > 1000 nM.

With `CC(C)NC(=O)c1csc(-c2oc(CN3CCN(C(=O)C(C)(C)C)CC3)nc2-c2ccc(F)cc2)n1` [Example 340], the IC50 was ≤ 1000 nM.

Regarding `CC(C)NC(=O)c1csc(-c2oc(CN3CCN(C(=O)c4ccnc(Cl)c4)CC3)nc2-c2ccc(F)cc2)n1` [Example 391], the half-inhibitory concentration (IC50) is > 1000 nM.

The same assay, now with this note: p38α kinase; Table 1 Biological Activity.
With `CC(C)NC(=O)c1csc(-c2c(-c3ccc(F)cc3)noc2CNCCc2cccc(Cl)c2)n1` [Example 1480], the IC50 is > 1000 nM.

Turning to `CCOC(=O)CC(C)NC(=O)c1csc(-c2c(-c3ccc(F)cc3)n[nH]c2C2CCNCC2)n1` (stereo not drawn) [Example 2088], the half-maximal inhibitory concentration (IC50) was > 1000 nM.

`Cc1ccc(C(=O)N2CCC(c3[nH]nc(-c4ccc(F)cc4)c3-c3nc(C(=O)NC(C)C)cs3)CC2)c(C)c1` [Example 848]: the concentration for half-maximal inhibition (IC50) is > 1000 nM.

For `CC(C)NC(=O)c1csc(-c2c(-c3ccc(F)cc3)noc2CNCCCN(C)c2ccccc2)n1` [Example 1487], the concentration for half-maximal inhibition (IC50) is > 1000 nM.

Regarding `CC(C)NC(=O)c1csc(-c2oc(CN(C)CCC#N)nc2-c2ccc(F)cc2)n1` [Example 1191], the IC50 is > 1000 nM.

As for `Cc1ccc(NCc2nc(-c3ccc(F)cc3)c(-c3nc(C(=O)NC(C)C)cs3)o2)nc1` [Example 1311], the IC50 was > 1000 nM.

Consider `CC(C)NC(=O)c1csc(-c2oc(CNCCCN3CCOCC3)nc2-c2ccc(F)cc2)n1` [Example 1137], for which the half-maximal inhibitory concentration (IC50) is > 1000 nM.

As for `CC(=O)N[C@H]1CCN(C(=O)c2csc(-c3sc(C)nc3-c3ccc(F)cc3)n2)C1` [Example 1870], the concentration for half-maximal inhibition (IC50) was > 1000 nM.

Regarding `O=C(NCCCCO)c1csc(-c2c(-c3ccc(F)cc3)n[nH]c2C2CCNCC2)n1` [Example 2053], the half-inhibitory concentration (IC50) is > 1000 nM.

For `CCN(C(=O)c1csc(-c2sc(C)nc2-c2ccc(F)cc2)n1)C(Cc1ccccc1)c1ccco1` (stereo not drawn) [Example 1942], the 50% inhibitory concentration (IC50) was > 1000 nM.

Regarding `CC(C)NC(=O)c1csc(-c2oc(CNCCc3ccc(O)cc3)nc2-c2ccc(F)cc2)n1` [Example 1122], the concentration for half-maximal inhibition (IC50) is ≤ 1000 nM.

For `CC(C)NC(=O)c1csc(-c2oc(CNCCC(C)(C)C)nc2-c2ccc(F)cc2)n1` [Example 1079], the 50% inhibitory concentration (IC50) was ≤ 1000 nM.

Consider `Cc1cccc(NC(=O)c2csc(-c3sc(C)nc3-c3ccc(F)cc3)n2)c1` [Example 1956], for which the IC50 is > 1000 nM.

In the case of `CC(C)NC(=O)c1csc(-c2oc(CNc3ccccc3)nc2-c2ccc(F)cc2)n1` [Example 1307], the IC50 was > 1000 nM.

On to `Cc1nc(-c2ccc(F)cc2)c(-c2nc(C(=O)NCCCn3ccnc3)cs2)s1` [Example 1761], for which the half-maximal inhibitory concentration (IC50) was ≤ 1000 nM.

For `CC(C)NC(=O)c1csc(-c2oc(CNc3cc(Cl)c(Cl)c(Cl)c3)nc2-c2ccc(F)cc2)n1` [Example 1367], the IC50 is > 1000 nM.

With `COc1ccccc1CC(=O)N1CCC(c2[nH]nc(-c3ccc(F)cc3)c2-c2nc(C(=O)NC(C)C)cs2)CC1` [Example 896], the concentration for half-maximal inhibition (IC50) is > 1000 nM.

Regarding `CC(C)NC(=O)c1csc(-c2oc(CNCC3CCCCC3)nc2-c2ccc(F)cc2)n1` [Example 1090], the IC50 is > 1000 nM.

As for `COc1ccc(CCNCc2nc(-c3ccc(F)cc3)c(-c3nc(C(=O)NC(C)C)cs3)o2)cc1` [Example 1145], the IC50 was > 1000 nM.

Take `COc1ccc(CCN(C)C(=O)c2csc(-c3sc(C)nc3-c3ccc(F)cc3)n2)cc1OC` [Example 1923]: the IC50 is > 1000 nM.

Consider `CC(C)NC(=O)c1csc(-c2oc(CN3CCN(Cc4ccc5c(c4)OCO5)CC3)nc2-c2ccc(F)cc2)n1` [Example 1294], for which the half-maximal inhibitory concentration (IC50) was > 1000 nM.

For `CC(C)NC(=O)c1csc(-c2oc(CNCCN)nc2-c2ccc(F)cc2)n1` [Example 1056], the concentration for half-maximal inhibition (IC50) was > 1000 nM.

On to `COc1ccc2cc(C(C)C(=O)N3CCC(c4[nH]nc(-c5ccc(F)cc5)c4-c4nc(C(=O)NC(C)C)cs4)CC3)ccc2c1` (stereo not drawn) [Example 1027], for which the 50% inhibitory concentration (IC50) was > 1000 nM.

On to `COc1cc(C(=O)N2CCC(c3[nH]nc(-c4ccc(F)cc4)c3-c3nc(C(=O)NC(C)C)cs3)CC2)cc(Cl)n1` [Example 955], for which the IC50 was > 1000 nM.

Take `Cc1nc(-c2ccc(F)cc2)c(-c2nc(C(=O)NCc3ccc(Cl)cc3Cl)cs2)s1` [Example 1821]: the 50% inhibitory concentration (IC50) is ≤ 1000 nM.

In the case of `Cc1nc(-c2ccc(F)cc2)c(-c2nc(C(=O)N3CCN(c4cc(Cl)ccc4C)CC3)cs2)s1` [Example 1935], the IC50 is > 1000 nM.

With `CC(C)NC(=O)c1csc(-c2c(-c3ccc(F)cc3)noc2CN(C)C(Cc2ccccc2)c2ccccc2)n1` (stereo not drawn) [Example 1614], the IC50 was > 1000 nM.

For `CC(C)CNCc1nc(-c2ccc(F)cc2)c(-c2nc(C(=O)NC(C)C)cs2)o1` [Example 1062], the half-maximal inhibitory concentration (IC50) is > 1000 nM.

As to `Cc1nc(-c2ccc(F)cc2)c(-c2nc(C(=O)N3CCC(C(N)=O)CC3)cs2)s1` [Example 1869], the IC50 was > 1000 nM.

For `CCC(CO)NC(=O)c1csc(-c2c(-c3ccc(F)cc3)n[nH]c2C2CCNCC2)n1` (stereo not drawn) [Example 2051], the IC50 is ≤ 1000 nM.

For `CC(C)NC(=O)c1csc(-c2oc(CNCc3ccc(C(F)(F)F)cc3)nc2-c2ccc(F)cc2)n1` [Example 1166], the IC50 was > 1000 nM.

As for `CC(C)NC(=O)c1csc(-c2c(-c3ccc(F)cc3)n[nH]c2C2CCN(C(=O)c3cc(Cl)ccc3Cl)CC2)n1` [Example 967], the IC50 is > 1000 nM.

Take `CC(C)NC(=O)c1csc(-c2c(-c3ccc(F)cc3)noc2CN2CCSCC2)n1` [Example 1529]: the IC50 was > 1000 nM.

As for `C=CCN(Cc1nc(-c2ccc(F)cc2)c(-c2nc(C(=O)NC(C)C)cs2)o1)C1CCCCC1` [Example 1231], the IC50 is > 1000 nM.

For the compound `Cc1nc(-c2ccc(F)cc2)c(-c2nc(C(=O)Nc3ccc(Cl)c(Cl)c3)cs2)s1` [Example 2007], the IC50 is > 1000 nM.

Regarding `Cc1ccc(CCNC(=O)c2csc(-c3c(-c4ccc(F)cc4)n[nH]c3C3CCNCC3)n2)cc1` [Example 2090], the 50% inhibitory concentration (IC50) was > 1000 nM.

With `Cc1cccc(C(=O)N2CCC(c3[nH]nc(-c4ccc(F)cc4)c3-c3nc(C(=O)NC(C)C)cs3)CC2)c1C` [Example 850], the IC50 was > 1000 nM.

Turning to `CC(C)NC(=O)c1csc(-c2oc(CN3CCc4ccccc4C3)nc2-c2ccc(F)cc2)n1` [Example 1224], the 50% inhibitory concentration (IC50) was > 1000 nM.

`CC(C)NC(=O)c1csc(-c2c(-c3ccc(F)cc3)noc2CNN2CCOCC2)n1` [Example 1413]: the IC50 is > 1000 nM.

`Cc1cc(C)cc(NC(=O)c2csc(-c3sc(C)nc3-c3ccc(F)cc3)n2)c1` [Example 1971]: the IC50 is > 1000 nM.

Turning to `CC(C)NC(=O)c1csc(-c2c(-c3ccc(F)cc3)noc2CNCC#N)n1` [Example 1385], the 50% inhibitory concentration (IC50) was ≤ 1000 nM.

`CC(C)NC(=O)c1csc(-c2c(-c3ccc(F)cc3)noc2CNCCCN2CCCC2=O)n1` [Example 1464]: the concentration for half-maximal inhibition (IC50) is ≤ 1000 nM.

For `COc1ccc(CNCc2onc(-c3ccc(F)cc3)c2-c2nc(C(=O)NC(C)C)cs2)cc1OC` [Example 1490], the IC50 is > 1000 nM.

`CC(C)NC(=O)c1csc(-c2c(-c3ccc(F)cc3)noc2CN2CCN(c3ccc(C(F)(F)F)cn3)CC2)n1` [Example 1626]: the IC50 was > 1000 nM.

These data come from patent publication US20060252807A1, “Novel ortho-terphenyl inhibitors of p38 kinase and methods of treating inflammatory disorders” (Kalypsys, Inc., priority 2005, published 2006).
